Results from the NIST ThermoML archive (doi:10.1021/je050513r).
± gives the expanded uncertainty stated by the source.

Experiment: refractive index (Na D-line) (dimensionless)
Conditions: 293.1 K; 101.33 kPa; Liquid; Standard Abbe refractometry

Row | Compound | refractive index
1 | CN1CCCC1=O [N-methylpyrrolidone] | 1.4686 ± 0.0007
2 | Cc1cc(C)cc(C)c1 [1,3,5-trimethylbenzene] | 1.4992 ± 0.0007
3 | CCCCCCCCCCCCCCCC [hexadecane] | 1.4344 ± 0.0007
